# Reference: patent US7504397B2, “mTOR inhibitor compounds” (Kudos Pharmaceuticals Ltd., priority 2005, dated 2009)
# Molecular target: mTOR protein (Homo sapiens, UniProt P42345)
# Experiment: mTOR enzyme activity assay (PHAS-1 substrate)
# Assay type: biochemical
# Conditions: recombinant PHAS-1 as substrate
row,IC50,SMILES
1,< 1500 nM,"COc1cc(-c2csc(-c3ccnc(N4CCOCC4)n3)n2)cc(OC)c1O [Compound 27, 2,6-Dimethoxy-4-[2-(2-morpholin-4-yl-pyrimidin-4-yl)-thiazol-4-yl]-phenol]"
2,< 1500 nM,COc1cc2ncnc(NN=Cc3ccc(O)c(O)c3)c2cc1OC [Compound 41a]
3,< 1500 nM,O=C(NNc1nc(N2CCOCC2)nc(N2CCOCC2)n1)c1cc(O)c(O)c(O)c1 [Compound 47a]
4,< 1500 nM,"COc1cc(-c2cncn2-c2ccnc(N3CCOCC3)n2)cc(OC)c1O [Compound 50, 2,6-Dimethoxy-4-[3-(2-morpholin-4-yl-pyrimidin-4-yl)-3H-imidazol-4-yl]-phenol]"
5,< 1500 nM,Oc1c(F)cc(-c2csc(-c3ccnc(N4CCOCC4)n3)n2)cc1F [Compound 59a]
6,< 1500 nM,COc1cc(-c2csc(-c3ccnc(N4CCOC[C@@H]4C)n3)n2)cc(OC)c1O [Compound 59i]
7,< 1500 nM,COc1cc(-c2csc(-c3ccnc(N4CCCC(OC)C4)n3)n2)cc(OC)c1O (centres unmarked) [Compound 59j]
8,< 1500 nM,COc1cc(-c2csc(-c3ccnc(N4CCOCC4)n3)c2)cc(OC)c1O [Compound 69a]
9,< 1500 nM,CN(N=Cc1cc(O)c(O)c(O)c1)c1nc(N2CCOCC2)c2cccnc2n1 [Compound 75a]
10,< 1500 nM,COc1cc(C=NN(C)c2nc(N3CCOCC3)c3cccnc3n2)cc(OC)c1O [Compound 75b]

row,SMILES,IC50
1,COc1cc(C=NNc2cc(N3CCOCC3)nc(N3CCCCC3)n2)cc(OC)c1O [Compound 12b],< 1500 nM
